Measured values reported in patent publication US20150284399A1, “PROCESSES FOR THE PREPARATION OF S1P1 RECEPTOR MODULATORS AND CRYSTALLINE FORMS THEREOF” (Arena Pharmaceuticals, Inc., priority 2010, published 2015).
Where two headings read alike, the source gives them in different places.

How the values were obtained:
[1] = Dynamic moisture sorption (DMS); type: physicochemical; conditions: crystalline form
Description: Samples are prepared for dynamic moisture-sorption analysis by placing ˜5 mg to ˜20 mg of compound in a tarred sample holder on the VTI balance. The instrument is a dynamic moisture-sorption analyzer, VTI Corporation, SGA-100. A drying step is run at 40° C. and ˜1% RH for 1 h. The isotherm temperature is 25° C. A % weight change over 10 min (5 weight readings) of dm/dt=0.010 or 2 h, whichever occurs first, is required before continuing to the next step. The water content of the sample equilibrated as described above was determined from 30% RH to 90% RH and then back down to 10% RH.

[2] = tested on: rat cardiac allograft model; conditions: cited from earlier work
keratinocytes = conditions: Kim et al. 2004; cited from earlier work
[3] = organ transplantation; cited from earlier work
human islet cells = conditions: cited from earlier work
[4] = unlike cyclosporin A, FK506 and RAD; cited from earlier work
[5] = attributed to agonism of the S1P3 receptor; cited from earlier work
rat skin allograft model = conditions: monotherapy; cited from earlier work
[6] = tested on: rat renal allograft model; conditions: combination with mycophenolate mofetil (MMF); cited from earlier work
[7] = tested on: rat model for autoimmune myocarditis; conditions: cited from earlier work
vasculature = conditions: Bolick et al. 2005; cited from earlier work
[8] = tested on: type I diabetic vascular endothelium; conditions: Whetzel et al. 2006; cited from earlier work
S1P5 receptor = S1P5 receptor (Homo sapiens, UniProt Q9H228); conditions: Chiba 2005; cited from earlier work
Sequence of S1P5 receptor (Q9H228 whole entry): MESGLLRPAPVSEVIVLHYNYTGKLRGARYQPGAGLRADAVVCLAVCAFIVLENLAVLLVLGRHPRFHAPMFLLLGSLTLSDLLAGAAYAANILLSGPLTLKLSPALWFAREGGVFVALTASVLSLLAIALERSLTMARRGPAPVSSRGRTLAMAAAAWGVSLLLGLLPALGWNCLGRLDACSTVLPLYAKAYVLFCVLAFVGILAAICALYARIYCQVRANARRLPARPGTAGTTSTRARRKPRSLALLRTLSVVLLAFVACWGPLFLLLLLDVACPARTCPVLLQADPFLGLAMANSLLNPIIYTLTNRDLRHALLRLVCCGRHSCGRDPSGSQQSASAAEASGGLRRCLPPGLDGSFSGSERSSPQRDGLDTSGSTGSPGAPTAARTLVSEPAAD

S1P2 receptor = S1P2 receptor (Homo sapiens, UniProt O95136); conditions: Chiba 2005; cited from earlier work
Sequence of S1P2 receptor (O95136 whole entry): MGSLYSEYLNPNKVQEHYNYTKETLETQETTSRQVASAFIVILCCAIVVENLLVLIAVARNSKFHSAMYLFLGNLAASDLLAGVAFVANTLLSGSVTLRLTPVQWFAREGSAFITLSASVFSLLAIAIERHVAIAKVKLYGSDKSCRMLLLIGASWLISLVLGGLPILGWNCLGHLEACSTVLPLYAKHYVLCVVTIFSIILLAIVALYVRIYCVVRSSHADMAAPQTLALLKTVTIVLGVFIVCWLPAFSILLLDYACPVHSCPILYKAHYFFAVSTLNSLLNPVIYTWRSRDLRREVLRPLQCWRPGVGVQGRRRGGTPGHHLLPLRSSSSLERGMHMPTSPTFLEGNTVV

S1P4 receptor = target: T1, S1P4 receptor (Homo sapiens, UniProt O95977); conditions: Chiba 2005; cited from earlier work
T1 sequence (O95977 1-384): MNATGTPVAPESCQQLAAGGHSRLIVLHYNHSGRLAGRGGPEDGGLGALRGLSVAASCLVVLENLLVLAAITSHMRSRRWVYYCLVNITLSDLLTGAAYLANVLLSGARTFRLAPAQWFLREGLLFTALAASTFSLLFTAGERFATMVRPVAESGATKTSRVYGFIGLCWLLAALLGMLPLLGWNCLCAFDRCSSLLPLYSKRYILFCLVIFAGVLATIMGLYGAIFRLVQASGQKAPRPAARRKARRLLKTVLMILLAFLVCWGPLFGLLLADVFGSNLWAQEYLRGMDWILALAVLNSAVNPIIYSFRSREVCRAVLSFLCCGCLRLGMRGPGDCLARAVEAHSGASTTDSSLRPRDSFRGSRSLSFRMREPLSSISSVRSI

Male BALB/c mice = test: Mouse Peripheral Lymphocyte Lowering (PLL) assay; type: in vivo; conditions: 0.300 mg/kg oral dose in 0.5% methyl cellulose in water; 5 hours post-dose; vs vehicle; FIG. 15
Description: Male BALB/c mice (Charles River Laboratories, Wilmington, Mass.) were housed four per cage and maintained in a humidity-controlled (40 to 60%) and temperature-controlled (68 to 72° F.) facility on a 12 h: 12 h light/dark cycle (lights on at 6:30 am) with free access to food (Harlan Teklad, Orange, Calif., Rodent Diet 8604) and water. Mice were allowed (approximately) one week of habituation to the animal facility before testing.
Mice were given a 0.300 mg/kg oral dose of (R)-2-(9-chloro-7-(4-isopropoxy-3-(trifluoromethyl)benzyloxy)-2,3-dihydro-1H-pyrrolo[1,2-a]indol-1-yl)acetic acid L-lysine salt or dosing vehicle (0.5% methyl cellulose in water) in a total volume of 10 mL/kg. Peripheral blood samples were collected at 5 hours post-dose. The mice were anesthetized with isoflurane and blood was collected via cardiac puncture. A complete cell count (CBC), including lymphocyte count, was obtained using a CELL-DYN® 3700 (Abbott Laboratories, Abbott Park, Ill.) instrument. Results are presented in FIG. 15, in which peripheral blood lymphocyte (PBL) count is shown for the 5 hour group.

Female C57BL/6 mice = test: MOG-induced experimental autoimmune encephalomyelitis (EAE) in mice; type: in vivo, mouse; conditions: oral, once a day from day 3 until day 21; 0.1, 0.3 and 1.0 mg/kg; vs vehicle; FIG. 17

Compound: CC(C)Oc1ccc(COc2ccc3c(c2)c(Cl)c2n3CC[C@@H]2CC(=O)O)cc1C(F)(F)F.NCCN.O [(R)-2-(9-chloro-7-(4-isopropoxy-3-(trifluoromethyl)benzyloxy)-2,3-dihydro-1H-pyrrolo[1,2-a]indol-1-yl)acetic acid ethylenediamine salt hydrate]
- DMS weight gain after adsorption cycle to about 90% RH followed by desorption cycle back to about 10% RH [1]: 25° C.; gains less than about 1.5% weight after undergoing

Compound: CC(C)Oc1ccc(COc2ccc3c(c2)c(Cl)c2n3CC[C@@H]2CC(=O)[O-])cc1C(F)(F)F.O.[Na+] [(R)-2-(9-chloro-7-(4-isopropoxy-3-(trifluoromethyl)benzyloxy)-2,3-dihydro-1H-pyrrolo[1,2-a]indol-1-yl)acetic acid sodium salt hydrate]
- DMS weight gain at about 90% relative humidity ([1]; from about 30% RH to about 90% RH at 25° C.): FIG. 9: gains about 2.5% weight at about 90% relative humidity

Compound: O=C(O)CCNCc1ccc2sc(-c3ccc(-c4ccccc4)c(C(F)(F)F)c3)cc2c1 [AUY954]
- prolonging allograft survival ([2]; combination with a subtherapeutic dose of RAD001): can prolong rat cardiac allograft survival

Compound: CCCCCCCCCCCCC/C=C/[C@@H](O)[C@@H](N)COP(=O)(O)O [Compound S1P, sphingosine-1-phosphate]
- keratinocyte proliferation (keratinocytes): inhibits keratinocyte proliferation

Compound: C=CC[C@@H]1/C=C(\C)C[C@H](C)C[C@H](OC)[C@H]2O[C@@](O)(C(=O)C(=O)N3CCCC[C@H]3C(=O)O[C@H](/C(C)=C/[C@@H]3CC[C@@H](O)[C@H](OC)C3)[C@H](C)[C@@H](O)CC1=O)[C@H](C)C[C@@H]2OC [FK506]
- undesirable side effects [3]: nephrotoxicity, neurotoxicity, β-cell toxicity and gastrointestinal discomfort

Compound: CCCCCCCCc1ccc(CCC(N)(CO)CO)cc1 [FTY720, fingolimod]
- effects on human islet function (human islet cells): no detrimental effects on human islet function
- general immunosuppression while prolonging graft survival [4]: without inducing general immunosuppression
- adverse event in clinical trials [5]: transient asymptomatic bradycardia

Compound: NC(CO)(CO)CCc1ccc(Sc2cccc(OCc3ccccc3)c2)cc1Cl [KRP-203]
- prolonging allograft survival (rat skin allograft model): therapeutic efficacy for prolonging allograft survival
- prolonging allograft survival [6]: therapeutic efficacy in combination with mycophenolate mofetil
- therapeutic efficacy [7]: therapeutic efficacy
- prolonging allograft survival ([2]; combination with cyclosporin A): synergistic combination with cyclosporin A
- prolonging allograft survival ([2]; combination with mycophenolate mofetil (MMF)): therapeutic efficacy in combination with mycophenolate mofetil
- prolonging allograft survival ([2]; monotherapy): therapeutic efficacy for prolonging allograft survival

Compound: FC(F)(F)c1cccc(-c2noc(-c3cc(-c4ccccc4)c(C(F)(F)F)s3)n2)c1 [SEW2871]
- protection against TNFα-mediated monocyte/endothelial interactions (vasculature): protects the vasculature against TNFα-mediated monocyte/endothelial interactions
- proinflammatory monocyte/endothelial interactions [8]: prevents proinflammatory monocyte/endothelial interactions

Compound: CCCCCCCCc1ccc(CCC(N)(CO)COP(=O)(O)O)cc1 (centres unmarked) [phosphorylated derivative]
- agonist activity on S1P5 receptor (S1P5 receptor): agonist
- agonist activity on S1P2 receptor (S1P2 receptor): not the S1P2 receptor
- agonist activity on S1P4 receptor (S1P4 receptor): agonist

Compound: (R)-2-(9-Chloro-7-(4-isopropoxy-3-(trifluoromethyl)benzyloxy)-2,3-dihydro-1H-pyrrolo[1,2-a]indol-1-yl)acetic acid L-lysine salt
- peripheral blood lymphocyte (PBL) lowering (lymphopenia) (Male BALB/c mice): exhibited activity for inducing PBL lowering (lymphopenia)
- DMS weight gain at a 90% RH hold ([1]; 90% RH hold at 25° C.): FIG. 6: gains less than about 2.2% weight at a 90% RH hold at
- DMS weight gain after adsorption cycle to about 90% RH followed by desorption cycle back to about 10% RH [1]: 25° C.; gains less than about 0.25% weight after undergoing a
- reduction of the severity of disease symptoms (clinical score) in EAE (Female C57BL/6 mice): exhibits therapeutic efficacy in EAE
